The test concerns MOLT-4. Nature of the test: Cytotoxicity against human MOLT-4 cells assessed as reduction in cell viability incubated for 24 hrs by MTT assay. Type of test: functional, cell-based. The note with it: MOLT-4, 24 h. Background: Tetrazolium dyes change colour on reduction, which living cells bring about.

By IC50 is commonly meant the point on the concentration scale where inhibition reaches its midpoint.

Starred links: 1 amine or outer side, 2 acyl side, 3 side chain; linkers in the order of their positions; H or OH if unused. Non-standard residues stand in square brackets, D forms with d. Residues, ends and D or L forms follow the SMILES beside them. X1 = C[C@H](Cc1ccccc1)[C@H](N[*:1])C(=O)[*:2]; X2 = CC(C)[C@@H](N[*:1])[C@@H](C)C(=O)[*:2]; dNMeV = CN[C@@H](C(=O)O)C(C)C; dHiv = CC(C)[C@@H](O)C(=O)O; Lac = C[C@H](O)C(=O)O

Turning to `C#CCCC[C@@H]1OC(=O)[C@H](Cc2ccccc2)NC(=O)[C@H](C(C)C)NC(=O)[C@@H]2CCCN2C(=O)[C@@H]2CCCN2C(=O)[C@H](C)OC(=O)[C@@H](C(C)C)N(C)C(=O)[C@H](C(C)C)NC(=O)C1(C)C`, the IC50 was found to be 5.9 µM.

For the compound `CCCCC[C@@H]1OC(=O)[C@H](Cc2ccccc2)NC(=O)[C@H](C(C)C)NC(=O)[C@@H]2CCCN2C(=O)[C@@H]2CCCN2C(=O)[C@H](C)OC(=O)[C@@H](C(C)C)N(C)C(=O)[C@H](C(C)C)NC(=O)C1(C)C`, the IC50 came to 37 µM.

For the compound `C=CCCC[C@@H]1OC(=O)[C@H](Cc2ccccc2)NC(=O)[C@H](C(C)C)NC(=O)[C@@H]2CCCN2C(=O)[C@@H]2CCCN2C(=O)[C@H](C)OC(=O)[C@@H](C(C)C)N(C)C(=O)[C@H](C(C)C)NC(=O)C1(C)C`, the concentration for half-maximal inhibition (IC50) was determined as 5.6 µM.

Regarding `CC(C)[C@@H]1OC(=O)[C@H](C)[C@@H](C(C)C)NC(=O)[C@@H]2CCCN2C(=O)[C@H]([C@H](C)Cc2ccccc2)NC(=O)[C@@H]2CCCN2C(=O)[C@@H](C(C)C)OC(=O)[C@@H]2CCCN2C(=O)[C@@H](C(C)C)N(C)C1=O`, the IC50 worked out at 23 µM.

Turning to `CC(C)[C@H]1NC(=O)[C@@H]2CCCN2C(=O)[C@H]([C@H](C)Cc2ccccc2)NC(=O)[C@@H]2CCCN2C(=O)[C@@H](C(C)C)N(C)C(=O)[C@@H](C(C)C)OC(=O)[C@@H]2CCCN2C(=O)[C@H](C)OC(=O)[C@@H]1C` (cyclo([Lac]P[dHiv][dNMeV]P[X1]P[X2])), the IC50 was 2.5 µM.

These data come from ChEMBL document CHEMBL5131439, “Triproamide and Pemukainalides, Cyclic Depsipeptides from the Marine Cyanobacterium Symploca hydnoides” (J Nat Prod, 2022).
